In data set [1] the target is T1, Thymidine phosphorylase (Homo sapiens, UniProt P19971).
T1 sequence (P19971 whole entry): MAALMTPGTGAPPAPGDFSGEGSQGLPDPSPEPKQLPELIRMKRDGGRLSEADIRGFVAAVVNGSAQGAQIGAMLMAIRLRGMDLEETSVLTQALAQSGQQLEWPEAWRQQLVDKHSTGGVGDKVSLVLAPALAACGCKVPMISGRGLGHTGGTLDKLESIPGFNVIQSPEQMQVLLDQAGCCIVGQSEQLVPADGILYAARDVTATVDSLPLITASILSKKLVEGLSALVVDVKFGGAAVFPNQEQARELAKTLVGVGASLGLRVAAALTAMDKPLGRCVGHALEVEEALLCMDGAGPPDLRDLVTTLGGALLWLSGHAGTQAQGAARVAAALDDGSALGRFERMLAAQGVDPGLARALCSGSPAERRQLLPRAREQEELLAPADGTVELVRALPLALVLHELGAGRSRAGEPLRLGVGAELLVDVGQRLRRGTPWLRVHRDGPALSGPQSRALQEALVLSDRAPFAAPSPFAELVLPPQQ
In words: Inhibition of human recombinant thymidine phosphorylase expressed in V79 cells. It is filed as cell-based.

Data set [2] addresses T1, Thymidine phosphorylase. The data set can be described thus: Inhibition of human placental thymidine phosphorylase.
Data set [3] is described as follows: Acid dissociation constant, pKa of the compound. It is filed as physicochemical.

Bounds are passed on as bounds.

For the compound `NCCNc1[nH]c(=O)[nH]c(=O)c1-c1ccccc1`, the Ki in data set [1] and in data set [2] was over 20 µM each time.
As to `O=c1[nH]c(Cl)c(C2=CCCC2)c(=O)[nH]1`, in data set [3], the pKa came out at 5.8.
Regarding `Cc1[nH]c(=O)[nH]c(=O)c1-c1ccccc1`, the Ki in data set [1] and in data set [2] was over 20 µM throughout.
As for `O=c1[nH]c(N2CCCC2)c(-c2ccccc2)c(=O)[nH]1`, the inhibition constant Ki in data set [1] and in data set [2] was over 20 µM in each case.
Consider `CCc1c(Cl)[nH]c(=O)[nH]c1=O`, for which the Ki in data set [1] and in data set [2] was over 20 µM each time.

(Values after ChEMBL document CHEMBL1138271, “Discovery of 5-substituted-6-chlorouracils as efficient inhibitors of human thymidine phosphorylase” (J Med Chem, 2007).)
